Results as given in PubChem BioAssay AID248 (DTP/NCI, 2004).
Where “and” joins values, the source holds several entries; their conditions need not be identical. Equal entries are not always repeated. Inconclusive results and toxic doses are left out. Cut-off read from the data, not from the text of the source: active = T/C of 150% or more; inactive = T/C below 125%.

Test system: L1210 leukemia ip in BDF1 mice, survival T/C
Test: NCI In Vivo Anticancer Drug Screen. Data for tumor model L1210 Leukemia (intraperitoneal) in B6D2F1 (BDF1) mice
Settings: endpoint: mean survival time, higher = longer survival
In short: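 Each compound was tested against a transplantable tumor grown in mice. The endpoint was survival, with treated animals benchmarked against vehicle controls as a simple ratio.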

[1] = dose: 100.0 mg/kg/injection, schedule: Q04DX003 (ip), vehicle: Klucel (hydroxypropylcellulose) (HPC)
[2] = dose: 200.0 mg/kg/injection, schedule: Q04DX003 (ip), vehicle: Klucel (hydroxypropylcellulose) (HPC)
[3] = dose: 100.0 mg/kg/injection, schedule: Q01DX001 (ip), vehicle: saline
[4] = dose: 200.0 mg/kg/injection, schedule: Q01DX001 (ip), vehicle: saline
[5] = dose: 400.0 mg/kg/injection, schedule: Q01DX001 (ip), vehicle: saline
[6] = dose: 100.0 mg/kg/injection, schedule: Q04DX002 (ip), vehicle: saline
[7] = dose: 200.0 mg/kg/injection, schedule: Q04DX002 (ip), vehicle: saline
[8] = dose: 400.0 mg/kg/injection, schedule: Q04DX002 (ip), vehicle: saline

Measured: T/C

CCNc1nc(Cl)nc(NCC)n1
inactive: dose: 100.0 mg/kg/injection, schedule: Q01DX009 (ip), vehicle: saline sonified 98 % of control | dose: 100.0 mg/kg/injection, schedule: Q01DX009 (ip), vehicle: saline with Tween-80 95 % of control | [1] 94 % of control and 103 % of control | dose: 200.0 mg/kg/injection, schedule: Q01DX009 (ip), vehicle: saline sonified 98 % of control | dose: 200.0 mg/kg/injection, schedule: Q01DX009 (ip), vehicle: saline with Tween-80 94 % of control | [2] 94 % of control and 103 % of control | dose: 400.0 mg/kg/injection, schedule: Q01DX009 (ip), vehicle: saline sonified 96 % of control | dose: 400.0 mg/kg/injection, schedule: Q01DX009 (ip), vehicle: saline with Tween-80 100 % of control | dose: 400.0 mg/kg/injection, schedule: Q04DX003 (ip), vehicle: Klucel (hydroxypropylcellulose) (HPC) 102 % of control and 103 % of control

CC(=O)Oc1cc(C)nc(OC(C)=O)c1
inactive: [3] 94 % of control | [4] 100 % of control | [5] 97 % of control

C[N+](C)(C)C1(Cc2ccc(Br)cc2)c2ccccc2-c2ccccc21
inactive: dose: 25.0 mg/kg/injection, schedule: Q04DX003 (ip), vehicle: saline with Tween-80 88 % of control

CCN1/C(=C/C=C/c2oc3ccccc3[n+]2CC)Oc2ccccc21
inactive: dose: 0.05 mg/kg/injection, schedule: Q04DX003 (ip), vehicle: Klucel (hydroxypropylcellulose) (HPC) 102 % of control | dose: 0.1 mg/kg/injection, schedule: Q04DX003 (ip), vehicle: Klucel (hydroxypropylcellulose) (HPC) 100 % of control | dose: 0.2 mg/kg/injection, schedule: Q01DX009 (ip), vehicle: saline 104 % of control | dose: 0.2 mg/kg/injection, schedule: Q04DX003 (ip), vehicle: Klucel (hydroxypropylcellulose) (HPC) 98 % of control | dose: 0.2 mg/kg/injection, schedule: Q04DX003 (ip), vehicle: saline 112 % of control | dose: 0.4 mg/kg/injection, schedule: Q01DX009 (ip), vehicle: saline 109 % of control | dose: 0.4 mg/kg/injection, schedule: Q04DX003 (ip), vehicle: Klucel (hydroxypropylcellulose) (HPC) 104 % of control | dose: 0.4 mg/kg/injection, schedule: Q04DX003 (ip), vehicle: saline 94 % of control | dose: 0.5 mg/kg/injection, schedule: Q01DX001 (ip), vehicle: saline 108 % of control | dose: 0.8 mg/kg/injection, schedule: Q01DX009 (ip), vehicle: saline 114 % of control | dose: 0.8 mg/kg/injection, schedule: Q04DX003 (ip), vehicle: saline 100 % of control | dose: 1.0 mg/kg/injection, schedule: Q01DX001 (ip), vehicle: saline 100 % of control | dose: 1.6 mg/kg/injection, schedule: Q04DX003 (ip), vehicle: saline 107 % of control | dose: 37.5 micrograms/kg/injection, schedule: Q01DX009 (ip), vehicle: Klucel (hydroxypropylcellulose) (HPC) 108 % of control | dose: 75.0 micrograms/kg/injection, schedule: Q01DX009 (ip), vehicle: Klucel (hydroxypropylcellulose) (HPC) 98 % of control | dose: 150.0 micrograms/kg/injection, schedule: Q01DX009 (ip), vehicle: Klucel (hydroxypropylcellulose) (HPC) 107 % of control | dose: 300.0 micrograms/kg/injection, schedule: Q01DX009 (ip), vehicle: Klucel (hydroxypropylcellulose) (HPC) 113 % of control

CCCCC(CC)C(=O)[O][Ge]([CH2]CCC)([CH2]CCC)[O]C(=O)C(CC)CCCC (stereo unspecified)
inactive: dose: 100.0 mg/kg/injection, schedule: Q01DX001 (ip), vehicle: saline with Tween-80 101 % of control | dose: 200.0 mg/kg/injection, schedule: Q01DX001 (ip), vehicle: saline with Tween-80 100 % of control | dose: 400.0 mg/kg/injection, schedule: Q01DX001 (ip), vehicle: saline with Tween-80 100 % of control

CC(=O)OC1CCC2(C)C3CCC4(C)C(C(C)/C=C/C(C)C(C)C)CCC4C34C=CC2(C1)C1C(=O)OC(=O)C14 (stereo unspecified)
inactive: [6] 93 % of control | [7] 96 % of control | [8] 89 % of control

CNC(=O)Nc1nc2ccc([N+](=O)[O-])cc2[nH]1
inactive: [3] 105 % of control | [4] 103 % of control | [5] 97 % of control

OCNC(=S)c1c(Cl)cccc1Cl
inactive: dose: 100.0 mg/kg/injection, schedule: Q04DX003 (ip), vehicle: saline with Tween-80 100 % of control | dose: 200.0 mg/kg/injection, schedule: Q04DX003 (ip), vehicle: saline with Tween-80 102 % of control | dose: 400.0 mg/kg/injection, schedule: Q04DX003 (ip), vehicle: saline with Tween-80 102 % of control

O=C(O)c1cccc(F)c1C(=O)c1ccc2ccccc2c1 (tested in a mixture with another compound)
inactive: [1] 105 % of control | [2] 86 % of control

CCN1/C(=C/C=C2/SC(=S)N(CC(=O)O)C2=O)Oc2ccccc21
inactive: dose: 50.0 mg/kg/injection, schedule: Q01DX001 (ip), vehicle: saline 100 % of control | [3] 96 % of control | [4] 100 % of control | [5] 106 % of control

O=C(/C=C/c1ccccc1)N/N=C/c1ccncc1
inactive: [6] 91 % of control | [7] 108 % of control | [8] 112 % of control
